From PMC11314731 (Polymers, 2024)
Read-outs that look alike come from different tables or passages of the source.

Columns and labels:
Mdr1a P-gp = tested on: Mdr1a P-gp; design: method as in PMID 9050899; conditions: cited from earlier work
[1] = cited from earlier work
Caco-2 cells = experiment: In vitro cellular uptake of Rh123 in Caco-2 cells; conditions: Rh123 20 µM, 5 h incubation, 37 °C; TPGS 33 µM, CyA 4 µM

SMILES | increase in plasma AUC of PTX, Mdr1a knockout vs wild-type mice (Mdr1a P-gp; IV administration) | increase in plasma AUC of PTX, Mdr1a knockout vs wild-type mice (Mdr1a P-gp; oral administration) | LogP [1] | pKa [1] | fluorescence intensity (cellular uptake of Rh123) (Caco-2 cells)
CC(=O)O[C@H]1C(=O)[C@@]2(C)[C@H]([C@H](OC(=O)c3ccccc3)[C@]3(O)C[C@H](OC(=O)[C@H](O)[C@@H](NC(=O)c4ccccc4)c4ccccc4)C(C)=C1C3(C)C)[C@]1(OC(C)=O)CO[C@@H]1C[C@@H]2O [PTX, Paclitaxel] | twofold increase | more than sixfold increase | 3.66 | 10.36 | –
COC(=O)c1ccccc1-c1c2ccc(=N)cc-2oc2cc(N)ccc12 [free Rh123, rhodamine 123] | – | – | – | – | very low fluorescence intensity
